In ChEMBL document CHEMBL5303766, “Data for DCP probe FHT-2344” (2022):

Key:
[1] = biological target: 5-hydroxytryptamine receptor 1B (Homo sapiens) (UniProt P28222); conditions: Compound concentration 10.0 uM
[2] = biological target: T1, Dual specificity mitogen-activated protein kinase kinase 4 (Homo sapiens) (UniProt P45985); assay: MAP2K4 SGC Tm panel (DSF); conditions: for ΔTm: Compound concentration 10.0 uM
T1 sequence (whole entry): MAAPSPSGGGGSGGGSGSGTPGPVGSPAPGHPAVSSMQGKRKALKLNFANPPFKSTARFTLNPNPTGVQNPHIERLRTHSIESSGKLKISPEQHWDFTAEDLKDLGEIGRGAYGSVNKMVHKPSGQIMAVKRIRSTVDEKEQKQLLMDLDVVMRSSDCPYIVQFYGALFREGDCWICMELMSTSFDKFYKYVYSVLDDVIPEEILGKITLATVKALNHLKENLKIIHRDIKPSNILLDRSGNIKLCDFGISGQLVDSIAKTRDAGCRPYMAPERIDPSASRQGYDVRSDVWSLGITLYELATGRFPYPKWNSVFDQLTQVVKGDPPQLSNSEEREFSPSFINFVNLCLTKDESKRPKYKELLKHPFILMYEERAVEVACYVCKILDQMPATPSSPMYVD

[3] = biological target: T2, Cytoplasmic tyrosine-protein kinase BMX (Homo sapiens) (UniProt P51813); assay: BMX SGC Tm panel (DSF); conditions: for ΔTm: Compound concentration 10.0 uM
T2 sequence (whole entry): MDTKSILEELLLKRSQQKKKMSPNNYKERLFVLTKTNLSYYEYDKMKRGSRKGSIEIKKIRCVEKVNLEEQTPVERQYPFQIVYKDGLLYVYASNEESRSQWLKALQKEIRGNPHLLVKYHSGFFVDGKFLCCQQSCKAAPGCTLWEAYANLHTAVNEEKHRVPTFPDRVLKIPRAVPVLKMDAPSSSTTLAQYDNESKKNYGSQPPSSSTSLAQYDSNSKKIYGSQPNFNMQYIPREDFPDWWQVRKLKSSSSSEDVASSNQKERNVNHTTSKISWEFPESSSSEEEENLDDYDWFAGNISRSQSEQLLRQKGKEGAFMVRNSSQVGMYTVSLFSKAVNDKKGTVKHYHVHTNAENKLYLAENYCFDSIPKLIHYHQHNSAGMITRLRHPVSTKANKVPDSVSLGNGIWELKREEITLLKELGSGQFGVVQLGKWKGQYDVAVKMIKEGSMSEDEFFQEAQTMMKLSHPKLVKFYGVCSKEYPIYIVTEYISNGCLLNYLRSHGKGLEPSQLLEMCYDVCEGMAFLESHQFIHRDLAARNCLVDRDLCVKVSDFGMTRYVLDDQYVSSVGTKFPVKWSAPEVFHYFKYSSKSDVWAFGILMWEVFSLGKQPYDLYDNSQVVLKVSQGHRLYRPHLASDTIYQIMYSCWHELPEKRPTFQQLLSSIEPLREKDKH

[4] = biological target: T3, Myotonin-protein kinase (Homo sapiens) (UniProt Q09013); assay: DMPK SGC Tm panel (DSF); conditions: for ΔTm: Compound concentration 10.0 uM
T3 sequence (whole entry): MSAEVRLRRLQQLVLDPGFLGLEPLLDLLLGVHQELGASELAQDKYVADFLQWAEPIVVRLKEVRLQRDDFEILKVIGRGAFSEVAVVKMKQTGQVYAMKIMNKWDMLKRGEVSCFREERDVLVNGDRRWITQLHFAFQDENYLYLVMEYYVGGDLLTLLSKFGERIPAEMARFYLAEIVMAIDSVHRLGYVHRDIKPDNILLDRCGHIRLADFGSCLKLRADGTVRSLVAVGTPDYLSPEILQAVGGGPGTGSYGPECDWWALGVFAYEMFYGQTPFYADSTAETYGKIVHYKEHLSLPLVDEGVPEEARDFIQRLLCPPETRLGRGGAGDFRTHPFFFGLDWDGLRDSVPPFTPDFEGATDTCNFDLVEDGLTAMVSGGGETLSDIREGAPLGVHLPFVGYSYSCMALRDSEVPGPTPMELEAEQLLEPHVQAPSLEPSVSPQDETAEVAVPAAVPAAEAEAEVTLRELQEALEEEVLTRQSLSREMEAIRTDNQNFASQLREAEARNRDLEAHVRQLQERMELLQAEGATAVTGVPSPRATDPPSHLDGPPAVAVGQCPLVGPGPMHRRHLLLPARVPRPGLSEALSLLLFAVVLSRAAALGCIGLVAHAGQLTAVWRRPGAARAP

[5] = biological target: Homeodomain-interacting protein kinase 2 (Homo sapiens) (UniProt Q9H2X6); assay: HIPK2 SGC Tm panel (DSF); conditions: for ΔTm: Compound concentration 10.0 uM
Sequence of Homeodomain-interacting protein kinase 2 (Homo sapiens) (Q9H2X6 whole entry, looked up): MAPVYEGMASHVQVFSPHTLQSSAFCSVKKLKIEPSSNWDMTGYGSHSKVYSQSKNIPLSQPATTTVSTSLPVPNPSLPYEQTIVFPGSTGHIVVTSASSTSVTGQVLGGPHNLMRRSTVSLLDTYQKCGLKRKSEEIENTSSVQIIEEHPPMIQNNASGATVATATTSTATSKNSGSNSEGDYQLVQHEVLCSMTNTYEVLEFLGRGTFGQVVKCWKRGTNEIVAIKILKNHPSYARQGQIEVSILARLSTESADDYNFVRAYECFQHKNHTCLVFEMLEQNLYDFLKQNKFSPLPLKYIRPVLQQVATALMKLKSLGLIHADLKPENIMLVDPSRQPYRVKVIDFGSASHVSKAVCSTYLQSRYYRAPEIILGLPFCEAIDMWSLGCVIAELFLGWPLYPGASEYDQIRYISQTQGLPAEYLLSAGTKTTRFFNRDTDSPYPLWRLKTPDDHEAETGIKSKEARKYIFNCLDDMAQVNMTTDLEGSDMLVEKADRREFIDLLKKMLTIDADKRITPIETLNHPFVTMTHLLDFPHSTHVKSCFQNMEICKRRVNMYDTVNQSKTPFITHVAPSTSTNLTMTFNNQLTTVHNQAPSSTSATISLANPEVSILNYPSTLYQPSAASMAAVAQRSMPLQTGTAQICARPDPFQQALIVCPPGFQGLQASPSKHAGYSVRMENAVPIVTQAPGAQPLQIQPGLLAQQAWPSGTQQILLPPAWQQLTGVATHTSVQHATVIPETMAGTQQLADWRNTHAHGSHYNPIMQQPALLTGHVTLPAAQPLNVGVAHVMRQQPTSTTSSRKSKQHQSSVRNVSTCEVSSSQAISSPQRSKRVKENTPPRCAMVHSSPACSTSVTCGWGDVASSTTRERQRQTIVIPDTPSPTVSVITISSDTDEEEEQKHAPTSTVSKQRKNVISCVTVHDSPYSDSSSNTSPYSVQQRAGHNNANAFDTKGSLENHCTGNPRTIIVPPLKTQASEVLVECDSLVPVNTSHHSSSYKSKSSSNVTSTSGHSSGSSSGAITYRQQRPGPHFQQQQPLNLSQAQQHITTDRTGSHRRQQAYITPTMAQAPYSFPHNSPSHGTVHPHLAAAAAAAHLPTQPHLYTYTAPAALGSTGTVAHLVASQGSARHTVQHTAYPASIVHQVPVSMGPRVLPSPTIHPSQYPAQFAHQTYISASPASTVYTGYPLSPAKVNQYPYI

[6] = biological target: T4, Serine/threonine-protein kinase 17A (Homo sapiens) (UniProt Q9UEE5); assay: STK17A SGC Tm panel (DSF); conditions: for ΔTm: Compound concentration 10.0 uM
T4 sequence (whole entry): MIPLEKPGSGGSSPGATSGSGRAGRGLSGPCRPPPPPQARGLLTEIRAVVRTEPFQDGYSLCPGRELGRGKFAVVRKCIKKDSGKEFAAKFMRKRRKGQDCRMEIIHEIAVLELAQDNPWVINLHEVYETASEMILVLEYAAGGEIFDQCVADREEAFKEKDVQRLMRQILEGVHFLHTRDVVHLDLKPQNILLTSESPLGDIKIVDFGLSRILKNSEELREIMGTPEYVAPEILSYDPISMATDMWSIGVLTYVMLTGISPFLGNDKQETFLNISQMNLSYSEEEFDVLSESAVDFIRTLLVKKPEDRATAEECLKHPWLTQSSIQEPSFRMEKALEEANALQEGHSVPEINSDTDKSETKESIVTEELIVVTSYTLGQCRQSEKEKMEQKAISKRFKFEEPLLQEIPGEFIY

[7] = biological target: Maternal embryonic leucine zipper kinase (Homo sapiens) (UniProt Q14680); assay: MELK SGC Tm panel (DSF); conditions: for ΔTm: Compound concentration 10.0 uM
Sequence of Maternal embryonic leucine zipper kinase (Homo sapiens) (Q14680 whole entry, looked up): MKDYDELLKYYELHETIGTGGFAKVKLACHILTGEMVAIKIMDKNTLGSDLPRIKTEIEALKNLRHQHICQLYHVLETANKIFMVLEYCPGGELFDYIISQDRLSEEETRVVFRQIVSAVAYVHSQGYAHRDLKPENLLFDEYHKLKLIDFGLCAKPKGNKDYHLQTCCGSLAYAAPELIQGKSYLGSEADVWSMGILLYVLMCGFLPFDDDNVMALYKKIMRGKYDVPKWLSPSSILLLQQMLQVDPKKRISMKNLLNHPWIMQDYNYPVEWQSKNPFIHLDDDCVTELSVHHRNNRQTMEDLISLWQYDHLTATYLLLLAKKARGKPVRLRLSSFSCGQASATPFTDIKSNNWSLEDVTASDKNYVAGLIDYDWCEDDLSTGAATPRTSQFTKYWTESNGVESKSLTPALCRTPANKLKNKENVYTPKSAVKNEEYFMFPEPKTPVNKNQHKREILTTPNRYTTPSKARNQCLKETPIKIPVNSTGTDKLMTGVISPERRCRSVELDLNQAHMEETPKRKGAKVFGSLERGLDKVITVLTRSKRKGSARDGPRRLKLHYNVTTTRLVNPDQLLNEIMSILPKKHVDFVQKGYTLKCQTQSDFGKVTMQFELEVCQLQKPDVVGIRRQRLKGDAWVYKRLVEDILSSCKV

[8] = biological target: Muscarinic acetylcholine receptor M4 (Homo sapiens) (UniProt P08173); conditions: Compound concentration 10.0 uM
Sequence of Muscarinic acetylcholine receptor M4 (Homo sapiens) (P08173 whole entry): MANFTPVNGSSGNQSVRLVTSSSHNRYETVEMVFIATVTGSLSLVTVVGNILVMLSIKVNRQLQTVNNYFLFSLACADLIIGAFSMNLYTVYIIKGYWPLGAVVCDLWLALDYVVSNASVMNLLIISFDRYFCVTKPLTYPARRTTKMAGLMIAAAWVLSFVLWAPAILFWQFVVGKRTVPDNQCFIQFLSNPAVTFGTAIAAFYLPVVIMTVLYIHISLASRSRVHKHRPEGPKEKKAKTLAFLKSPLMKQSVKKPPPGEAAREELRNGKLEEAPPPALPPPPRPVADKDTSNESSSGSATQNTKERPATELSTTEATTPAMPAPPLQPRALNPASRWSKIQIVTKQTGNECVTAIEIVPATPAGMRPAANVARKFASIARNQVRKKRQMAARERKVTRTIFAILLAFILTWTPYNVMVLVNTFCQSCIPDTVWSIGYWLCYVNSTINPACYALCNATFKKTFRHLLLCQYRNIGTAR

Sequence of 5-hydroxytryptamine receptor 1B (Homo sapiens) (P28222 whole entry): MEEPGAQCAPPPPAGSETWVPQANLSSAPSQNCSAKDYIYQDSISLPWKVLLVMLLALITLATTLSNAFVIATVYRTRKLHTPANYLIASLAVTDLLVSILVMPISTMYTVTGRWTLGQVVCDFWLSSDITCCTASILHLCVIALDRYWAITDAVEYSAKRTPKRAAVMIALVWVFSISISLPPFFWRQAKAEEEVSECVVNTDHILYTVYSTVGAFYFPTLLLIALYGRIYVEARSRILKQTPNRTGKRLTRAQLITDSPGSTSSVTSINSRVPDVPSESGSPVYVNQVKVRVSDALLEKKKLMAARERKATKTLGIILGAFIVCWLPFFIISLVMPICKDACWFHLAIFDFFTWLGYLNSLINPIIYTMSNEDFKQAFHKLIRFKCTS

| Compound | inhibition [1] [%] | delta Tm Staurosporine positive control [2] | ΔTm [2] | delta Tm Staurosporine positive control [3] | ΔTm [3] | delta Tm Staurosporine positive control [4] | ΔTm [4] | delta Tm Staurosporine positive control [5] | ΔTm [5] | delta Tm Staurosporine positive control [6] | ΔTm [6] | delta Tm Staurosporine positive control [7] | ΔTm [7] | inhibition [8] [%] |
| --- | --- | --- | --- | --- | --- | --- | --- | --- | --- | --- | --- | --- | --- | --- |
| C[C@H](NC(=O)c1cn(C2(C#N)CC2)cn1)C(=O)Nc1nc(-c2cccc(-c3ccn(C)n3)c2)cs1 | 27.4 | 10.8 | 0.342 | 7.18 | 0.254 | 9.28 | -0.281 | 6.38 | 0.207 | 12.6 | 1.03 | 14 | 0.116 | 7.09 |
| COC[C@H](NC(=O)c1ccn(S(C)(=O)=O)c1)C(=O)Nc1nc(-c2cccc(-c3ccn(C)n3)c2)cs1 | 17.6 | 10.8 | 0.427 | 7.18 | 0.191 | 9.28 | 0.564 | 6.38 | 0.234 | 12.6 | 0.566 | 14 | -0.053 | 4.13 |
